Assay results: publication PMC8982737, “Discovery of S-217622, a Noncovalent Oral SARS-CoV-2 3CL Protease Inhibitor Clinical Candidate for Treating COVID-19” (Journal of Medicinal Chemistry, 2022)
Several values for one entry are separate records, joined by “and”; a condition that tells them apart may be missing. Identical values can stand only once. Like-named read-outs stand apart in the source and are kept apart here.

Tests used:
[1] = system: SARS-CoV-2; test: microbe, parasite or virus in culture; assay type: cell-based
[2] = system: SARS-CoV; test: microbe, parasite or virus in culture; assay type: cell-based; conditions: Severe acute respiratory syndrome coronavirus, VeroE6/TMPRSS2, read-out: EC50 against SARS-CoV
[3] = system: MERS-CoV; test: microbe, parasite or virus in culture; assay type: cell-based; conditions: Middle East respiratory syndrome-related coronavirus, VeroE6/TMPRSS2, read-out: EC50 against MERS-CoV
[4] = system: HCoV-229E; test: microbe, parasite or virus in culture; assay type: cell-based; conditions: Human coronavirus 229E
[5] = system: HCoV-OC43; test: microbe, parasite or virus in culture; assay type: cell-based
[6] = system: VeroE6/TMPRSS2 cells; conditions: African green monkey
[7] = target: SARS-CoV-2 3CL protease (Severe acute respiratory syndrome coronavirus 2, UniProt P0DTD1); test: biochemical; assay type: biochemical; conditions: for IC50: read-out: SARS-CoV-2 3CLpro IC50
[8] = both, human, microsomes, 0.5 h, 0.5 μM, pH 7.4
[9] = male, rat, microsomes, 0.5 h, 0.5 μM, pH 7.4
[10] = male, Sprague-Dawley, rat, in vivo; for CL (total clearance): iv
[11] = target: chymotrypsin; test: Human protease enzyme assay: chymotrypsin; assay type: biochemical
[12] = target: cathepsin L (Homo sapiens, UniProt P07711); test: Human protease enzyme assay: cathepsin L; assay type: biochemical
[13] = target: HIV-1 protease (Human immunodeficiency virus type 1 group M subtype B, UniProt P04585); test: Enzymatic inhibitory activity against HIV-1 protease; assay type: biochemical
[14] = system: SARS-CoV-2; test: Cellular antiviral activity in the presence of mouse serum; assay type: cell-based; conditions: Severe acute respiratory syndrome coronavirus 2; extrapolated to 100% mouse serum; read-out: protein-adjusted-EC50 (PA-EC50)
[15] = system: SARS-CoV-2 Gamma strain (hCoV-19/Japan/TY7-501/2021); assay type: in vivo, BALB/cAJcl mice
[16] = target: T1, human ether-a-go-go-related gene channel (Homo sapiens, UniProt Q12809); test: Human ether-a-go-go-related gene inhibition assay (patch clamp, CHO cells); assay type: cell-based; conditions: in vitro
T1 construct: expressed in transfected cells; host or cells: Chinese hamster ovary (CHO) cells

[17] = target: T2, caspase-2 (Homo sapiens, UniProt P42575)
T2 sequence (P42575 1-452): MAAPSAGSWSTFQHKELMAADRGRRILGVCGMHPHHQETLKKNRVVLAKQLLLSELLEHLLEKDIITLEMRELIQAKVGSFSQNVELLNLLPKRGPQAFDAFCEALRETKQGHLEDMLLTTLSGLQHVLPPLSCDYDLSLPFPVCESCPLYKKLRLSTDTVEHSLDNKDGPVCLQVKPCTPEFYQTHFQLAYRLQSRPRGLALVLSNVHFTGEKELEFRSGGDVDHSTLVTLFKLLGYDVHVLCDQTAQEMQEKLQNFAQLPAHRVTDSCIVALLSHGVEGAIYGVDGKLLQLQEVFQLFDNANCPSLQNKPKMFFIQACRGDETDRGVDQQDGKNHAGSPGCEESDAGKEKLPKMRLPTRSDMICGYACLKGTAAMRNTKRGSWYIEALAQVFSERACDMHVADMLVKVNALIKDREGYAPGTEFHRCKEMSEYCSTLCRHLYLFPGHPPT

[18] = target: T3, cathepsin D (Homo sapiens, UniProt P07339); conditions: at 100 μM
[19] = target: T4, cathepsin G (Homo sapiens, UniProt P08311)
T4 sequence (P08311 21-255): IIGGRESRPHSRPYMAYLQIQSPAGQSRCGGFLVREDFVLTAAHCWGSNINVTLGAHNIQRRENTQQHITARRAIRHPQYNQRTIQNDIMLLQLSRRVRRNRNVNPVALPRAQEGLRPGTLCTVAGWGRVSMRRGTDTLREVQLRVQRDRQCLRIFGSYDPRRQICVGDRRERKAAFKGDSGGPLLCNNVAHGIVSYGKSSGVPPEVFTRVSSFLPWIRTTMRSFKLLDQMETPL

[20] = target: thrombin (Homo sapiens, UniProt P00734); conditions: at 100 μM
[21] = mouse, in vivo
[22] = system: TK6 cells
[23] = system: BALB/3T3 cells
[24] = in vivo; conditions: female, cynomolgus monkey
[25] = in vivo; conditions: male, beagle, dog
[26] = in vitro; conditions: African green monkey
[27] = target: T3, cathepsin D; test: biochemical; conditions: read-out: Inhibitory activity
[28] = Rat PK study; conditions: oral 1 μmol/5 mL/kg, n = 2, nonfasted, listed as S-217622
[29] = Dog PK study; conditions: intravenous 0.1 mg/0.2 mL/kg, n = 2, nonfasted
[30] = Monkey PK study; conditions: intravenous 0.1 mg/0.2 mL/kg, n = 2, nonfasted
[31] = Severe acute respiratory syndrome coronavirus 2, VeroE6/TMPRSS2, strain hCoV-19/Japan/QHN001/2020 (Alpha, B.1.1.7), mean, read-out: EC50 on cytopathic effects
[32] = Severe acute respiratory syndrome coronavirus 2, VeroE6/TMPRSS2, strain hCoV-19/Japan/QHN002/2020 (Alpha, B.1.1.7), mean, read-out: EC50 on cytopathic effects
[33] = Severe acute respiratory syndrome coronavirus 2, VeroE6/TMPRSS2, strain hCoV-19/Japan/QK002/2020 (Alpha, B.1.1.7), mean, read-out: EC50 on cytopathic effects
[34] = Severe acute respiratory syndrome coronavirus 2, VeroE6/TMPRSS2, strain hCoV-19/Japan/TY7-501/2021 (Gamma, P.1), mean, read-out: EC50 on cytopathic effects
[35] = Severe acute respiratory syndrome coronavirus 2, VeroE6/TMPRSS2, strain hCoV-19/Japan/TY7-503/2021 (Gamma, P.1), mean, read-out: EC50 on cytopathic effects
[36] = Severe acute respiratory syndrome coronavirus 2, VeroE6/TMPRSS2, strain hCoV-19/Japan/TY8-612/2021 (Beta, B.1.351), mean, read-out: EC50 on cytopathic effects
[37] = Severe acute respiratory syndrome coronavirus 2, VeroE6/TMPRSS2, strain hCoV-19/Japan/TY11-927-P1/2021 (Delta, B.1.617.2), mean, read-out: EC50 on cytopathic effects
[38] = Severe acute respiratory syndrome coronavirus 2, VeroE6/TMPRSS2, strain hCoV-19/Japan/TY38-873/2021 (Omicron, B.1.1.529), mean, read-out: EC50 on cytopathic effects

Chain of cathepsin L (P07711 114-333): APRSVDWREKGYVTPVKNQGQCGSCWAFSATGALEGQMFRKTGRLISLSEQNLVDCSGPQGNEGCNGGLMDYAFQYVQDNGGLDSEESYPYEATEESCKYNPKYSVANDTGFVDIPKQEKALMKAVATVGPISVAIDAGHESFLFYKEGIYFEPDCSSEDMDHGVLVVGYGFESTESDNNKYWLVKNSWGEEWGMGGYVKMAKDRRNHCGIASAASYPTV
T3 sequence (P07339 65-412): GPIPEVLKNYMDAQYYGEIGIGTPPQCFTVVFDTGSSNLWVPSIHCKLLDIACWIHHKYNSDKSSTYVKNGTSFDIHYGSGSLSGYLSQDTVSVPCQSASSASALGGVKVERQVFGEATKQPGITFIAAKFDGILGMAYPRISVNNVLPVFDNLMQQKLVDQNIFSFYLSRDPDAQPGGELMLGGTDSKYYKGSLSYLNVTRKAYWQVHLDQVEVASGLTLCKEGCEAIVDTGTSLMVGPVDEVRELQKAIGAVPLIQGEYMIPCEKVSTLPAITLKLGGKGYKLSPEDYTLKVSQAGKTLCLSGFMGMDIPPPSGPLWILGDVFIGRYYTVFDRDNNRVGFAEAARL
T1 sequence (Q12809 whole entry): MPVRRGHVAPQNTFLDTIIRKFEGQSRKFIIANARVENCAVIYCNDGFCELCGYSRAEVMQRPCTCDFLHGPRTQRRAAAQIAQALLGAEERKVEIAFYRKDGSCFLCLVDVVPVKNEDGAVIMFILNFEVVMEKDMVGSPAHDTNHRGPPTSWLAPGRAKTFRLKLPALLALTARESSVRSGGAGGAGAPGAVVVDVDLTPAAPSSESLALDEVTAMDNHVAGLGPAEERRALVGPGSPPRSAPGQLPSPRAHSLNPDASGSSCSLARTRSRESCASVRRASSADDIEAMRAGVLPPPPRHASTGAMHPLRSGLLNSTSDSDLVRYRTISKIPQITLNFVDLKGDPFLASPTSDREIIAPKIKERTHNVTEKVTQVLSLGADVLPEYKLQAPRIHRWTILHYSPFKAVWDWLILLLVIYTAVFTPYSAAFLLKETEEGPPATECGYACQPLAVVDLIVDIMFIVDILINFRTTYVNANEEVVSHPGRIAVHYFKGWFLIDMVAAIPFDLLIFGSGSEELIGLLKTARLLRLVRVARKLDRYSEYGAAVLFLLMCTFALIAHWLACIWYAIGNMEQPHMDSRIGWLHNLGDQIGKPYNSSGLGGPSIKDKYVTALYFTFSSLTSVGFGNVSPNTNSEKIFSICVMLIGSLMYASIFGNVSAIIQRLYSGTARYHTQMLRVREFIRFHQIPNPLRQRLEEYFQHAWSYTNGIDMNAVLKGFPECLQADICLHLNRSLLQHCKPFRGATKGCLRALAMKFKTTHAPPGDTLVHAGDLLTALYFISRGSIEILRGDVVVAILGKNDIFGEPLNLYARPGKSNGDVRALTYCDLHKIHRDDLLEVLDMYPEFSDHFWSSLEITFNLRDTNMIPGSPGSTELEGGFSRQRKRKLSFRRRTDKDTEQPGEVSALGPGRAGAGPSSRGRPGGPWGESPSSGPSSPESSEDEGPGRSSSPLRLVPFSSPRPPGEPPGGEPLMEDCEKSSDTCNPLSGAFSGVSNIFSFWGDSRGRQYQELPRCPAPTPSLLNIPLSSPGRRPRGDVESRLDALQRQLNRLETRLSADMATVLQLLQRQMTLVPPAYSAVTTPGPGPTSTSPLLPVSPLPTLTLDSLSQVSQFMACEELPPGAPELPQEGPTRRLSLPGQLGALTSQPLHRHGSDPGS

CCC(CC)COC(=O)[C@H](C)N[P@](=O)(OC[C@H]1O[C@@](C#N)(c2ccc3c(N)ncnn23)[C@H](O)[C@@H]1O)Oc1ccccc1 [Remdesivir, reference compound]
EC50 [1, 31]: 970 nM | EC50 [1, 32]: 990 nM | EC50 [1, 33]: 870 nM | EC50 [1, 34]: 2100 nM | EC50 [1, 35]: 1000 nM | EC50 [1, 36]: 1200 nM | EC50 [1, 37]: 1600 nM | EC50 [1, 38]: 1100 nM | EC50 ([1]; Severe acute respiratory syndrome coronavirus 2, VeroE6/TMPRSS2, read-out: EC50 on cytopathic effects): 1900 nM | EC50 [2]: 1300 nM | EC50 [3]: 1500 nM | EC50 ([4]; MRC5, read-out: EC50 against HCoV-229E): 41 nM | EC90 ([5]; Betacoronavirus 1, OC43, MRC5, read-out: EC90 against HCoV-OC43): 24 nM | CC50 [6]: > 100000 nM

CNC(=O)Cn1c(=O)[nH]/c(=N\c2ccc(OC)cc2C)n(Cc2cc(F)c(F)c(F)c2)c1=O [Compound 13]
IC50 [7]: 1900 nM

CNC(=O)Cn1c(=O)[nH]/c(=N\c2cc3cn(C)nc3cc2Cl)n(Cc2cc(F)c(F)c(F)c2)c1=O [Compound 2, (4E)-2-{4-[(6-Chloro-2-methyl-2H-indazol-5-yl)imino]-2,6-dioxo-3-(3,4,5-trifluorobenzyl)-1,3,5-triazinan-1-yl)-N-methylacetamide]
IC50 [7]: 96 nM | improvement in enzymatic inhibitory activity ([7]; relative to hit compound 1): 90 fold | EC50 ([1]; Severe acute respiratory syndrome coronavirus 2, VeroE6/TMPRSS2, molecular formula strings csv, read-out: VeroE6/TMPRSS2 EC50): 12500 nM | HLM, percentage remaining after 30 min [8]: 94.8% | RLM, percentage remaining after 30 min [9]: 94.3% | CL (total clearance) [10]: 4.9 mL/min/kg | Oral F (oral bioavailability) [10]: 29.6%

CNC(=O)Cn1c(=O)[nH]/c(=N\c2ccc(OC)cc2)n(Cc2cc(F)c(F)c(F)c2)c1=O [Compound 14]
IC50 [7]: 2800 nM

CNC(=O)Cn1c(=O)nc(Nc2cc3sc(C)nc3cc2C)n(Cc2ccc(F)cc2)c1=O [Compound 19]
IC50 [7]: 16000 nM

CNC(=O)Cn1c(=O)nc(Nc2cc3sc(C)nc3cc2C)n(Cc2cc(F)c(F)c(F)c2)c1=O [Compound 15]
IC50 [7]: 3500 nM

CNC(=O)Cn1c(=O)[nH]/c(=N\c2cc3sc(C)nc3cc2C)n(Cc2ccccc2)c1=O [Compound 16]
IC50 [7]: 58000 nM

CNC(=O)Cn1c(=O)nc(Nc2cc3sc(C)nc3cc2C)n(Cc2cccc(F)c2)c1=O [Compound 18]
IC50 [7]: 29000 nM

CNC(=O)Cn1c(=O)[nH]/c(=N\c2cc3sc(C)nc3cc2C)n(Cc2ccccc2F)c1=O [Compound 17]
IC50 [7]: 35000 nM

Cn1cnc(Cn2c(=O)[nH]/c(=N\c3cc4cn(C)nc4cc3Cl)n(Cc3cc(F)c(F)cc3F)c2=O)n1 [Compound 3, (6E)-6-[(6-Chloro-2-methyl-2H-indazol-5-yl)imino]-3-[(1-methyl-1H-1,2,4-triazol-3-yl)methyl]-1-(2,4,5-trifluorobenzyl)-1,3,5-triazinane-2,4-dione]
EC50 [1, 31]: 310 nM | EC50 [1, 32]: 460 nM | EC50 [1, 33]: 330 nM | EC50 [1, 34]: 500 nM | EC50 [1, 35]: 430 nM | EC50 [1, 36]: 400 nM | EC50 [1, 37]: 410 nM | EC50 [1, 38]: 290 nM | EC50 ([1]; Severe acute respiratory syndrome coronavirus 2, CPE inhibition assay, VeroE6/TMPRSS2 cells, read-out: VeroE6/TMPRSS2 EC50 (antiviral activity)): 370 nM | EC50 [2]: 210 nM | EC50 [3]: 1400 nM | EC50 ([4]; MRC5, CPE, MRC-5 cells, mean, read-out: EC50 against HCoV-229E): 5500 nM | EC90 ([5]; Betacoronavirus 1, OC43, MRC5, RT-qPCR, MRC-5 cells, mean, read-out: EC90 against HCoV-OC43): 74 nM | IC50 [11]: > 100000 nM | IC50 [12]: > 100000 nM | Inhibitory activity ([12]; at 100 μM): no inhibitory activity | inhibition at 100 µM ([12]; at 100 μM, read-out: Inhibitory activity): < 50% | IC50 [13]: > 100000 nM | inhibition at 100 µM ([13]; at 100 μM): < 50% | EC50 [14]: 3.93 µM and 2.09 µg/mL | lung viral titers ([15]; […], near lower limit of quantification): ~1.80 | effect on intrapulmonary (lung) viral titers ([15]; mouse, in vivo): reduced the intrapulmonary viral titers dose-dependently | ether-a-go-go-related gene inhibition [16]: no safety concerns | CC50 [6]: > 100000 nM | CL (total clearance) [10]: 1.70 mL/min/kg | IC50 ([17]; caspase 2): > 100000 nM | Inhibitory activity ([17]; caspase 2, at 100 μM): no inhibitory activity | Inhibitory activity [18]: no inhibitory activity | IC50 [19]: > 100000 nM | Inhibitory activity [20]: no inhibitory activity | simulated plasma concentration over time ([21]; BALB/cAJcl, 16 mg/kg): above the protein-adjusted-EC50 | plasma concentration [21]: increased dose-dependently | clastogenicity [22]: no safety concerns | phototoxicity [23]: no safety concerns | clearance ([24]; iv, 0.1 mg/kg): 0.29 mL/min/kg | bioavailability ([24]; po): 106% | clearance ([25]; iv, 0.1 mg/kg): 0.17 mL/min/kg | bioavailability ([25]; po): 64.7% | CC50 [26]: > 100000 nM | inhibition at 100 µM [27]: < 50% | Oral F (oral bioavailability) [28]: 97% | t1/2 ([29]; listed as S-217622): ~30 h | half-life ([29]; male, beagle, in vivo, iv, 0.1 mg/kg, t1/2, dog): 29.5 h | half-life ([30]; female, cynomolgus monkey, in vivo, iv, 0.1 mg/kg, t1/2, monkey): 10 h | t1/2 ([30]; monkey, listed as S-217622): approximately 10 h

CNC(=O)Cn1c(=O)[nH]/c(=N\c2ccc(OC(F)F)cc2C)n(Cc2cc(F)c(F)c(F)c2)c1=O [Compound 1, (4E)-2-(4-{[4-(Difluoromethoxy)-2-methylphenyl]imino}-2,6-dioxo-3-(3,4,5-trifluorobenzyl)-1,3,5-triazinan-1-yl)-N-methylacetamide]
IC50 [7]: 8600 nM | CL (total clearance) [10]: 7.3 mL/min/kg | Oral F (oral bioavailability) [10]: 111%
